From ChEMBL document CHEMBL1147683, “Synthesis of new and potent analogues of anti-tuberculosis agent 5-nitro-furan-2-carboxylic acid 4-(4-benzyl-piperazin-1-yl)-benzylamide with improved bioavailability” (Bioorg Med Chem Lett, 2006)
Values after ≈ are worked out from the molar mass of the structure shown.

What was measured:
[1] = (§1) Cmax in mouse serum at 300 mg/kg, po; assay type: ADME, organism-based; design: dose 300 mg/kg, route oral; conditions: serum
[2] = Half life in mouse serum at 300 mg/kg, po; assay type: ADME, organism-based; design: dose 300 mg/kg, route oral
[3] = system: Mycobacterium tuberculosis; experiment: Antituberculosis activity against Mycobacterium tuberculosis; assay type: functional
[4] = Tmax in mouse at 300 mg/kg, po; assay type: ADME, organism-based; design: dose 300 mg/kg, route oral; conditions: in vivo
Mus musculus = experiment: as §1; assay type: ADME, organism-based; design: dose 300 mg/kg, route oral; conditions: in vivo

Row | Structure (SMILES) | Cmax [1] [ng/mL] | half-life [2] [h] | MIC90 [3] [µg/mL] | Tmax [4] [h] | Cmax (Mus musculus) [ng/mL]
1 | CCOC(=O)N1CCN(c2ccc(CNC(=O)c3ccc([N+](=O)[O-])o3)cn2)CC1 | 6560 | 0.7 | 0.05 (≈ 0.124 µM) | 2.5 | 
2 | Cl.O=C(c1ccc([N+](=O)[O-])o1)N1CCc2cc(N3CCN(Cc4ccccc4)CC3)ccc2C1 | 736 | 3.5 |  | 0.5 | 
3 | CCOC(=O)N1CCN(c2ccc(CNC(=O)c3ccc([N+](=O)[O-])o3)cc2)CC1 |  |  | 0.0062 (≈ 0.0154 µM) |  | 
4 | CCOC(=O)N1CCCN(c2ccc(CNC(=O)c3ccc([N+](=O)[O-])o3)cc2)CC1 |  |  | 0.1 (≈ 0.24 µM) |  | 
5 | CC(C)(C)OC(=O)N1CCCN(c2ccc(CNC(=O)c3ccc([N+](=O)[O-])o3)cc2)CC1 | 280 | 7.5 | 0.1 (≈ 0.225 µM) | 0.5 | 
6 | CC(C)COC(=O)N1CCN(c2ccc(CNC(=O)c3ccc([N+](=O)[O-])o3)cc2)CC1 |  |  | 0.05 (≈ 0.116 µM) |  | 
7 | CCCNC(=O)N1CCN(c2ccc(CNC(=O)c3ccc([N+](=O)[O-])o3)cc2)CC1 | 4800 | 1.5 | 0.2 (≈ 0.481 µM) | 2.5 | 
8 | O=C(NCc1ccc(N2CCN(Cc3ccccc3)CC2)nc1)c1ccc([N+](=O)[O-])o1 | 1470 | 1.3 | 0.0062 (≈ 0.0147 µM) | 0.5 | 
9 | CN1CCN(c2ccc3c(c2)CCN(C(=O)c2ccc([N+](=O)[O-])o2)C3)CC1 |  |  | 0.2 (≈ 0.54 µM) |  | 
10 | O=C(c1ccc([N+](=O)[O-])o1)N1CCc2cc(N3CCSCC3)ccc2C1 |  |  | 0.4 (≈ 1.07 µM) |  | 
11 | CN1CCN(c2ccc3c(c2)CCN(C(=O)c2ccc([N+](=O)[O-])o2)C3)CC1.Cl | 280 | 2 |  | 0.5 | 
12 | O=C(NCc1ccc(N2CCN(Cc3ccccc3)CC2)cc1)c1ccc([N+](=O)[O-])o1 |  |  | 0.0125 (≈ 0.0297 µM) |  | 
13 | CC(C)NC(=O)N1CCN(c2ccc(CNC(=O)c3ccc([N+](=O)[O-])o3)cn2)CC1 | 22000 | 0.5 | 0.56 (≈ 1.34 µM) | 2.5 | 
14 | COC(=O)N1CCN(c2ccc(CNC(=O)c3ccc([N+](=O)[O-])o3)cc2)CC1 |  |  | 0.1 (≈ 0.257 µM) |  | 
15 | C=CCOC(=O)N1CCN(c2ccc(CNC(=O)c3ccc([N+](=O)[O-])o3)cc2)CC1 |  |  | 0.5 (≈ 1.21 µM) |  | 
16 | CC(C)NC(=O)N1CCCN(c2ccc(CNC(=O)c3ccc([N+](=O)[O-])o3)cc2)CC1 | 7400 | 2 | 0.8 (≈ 1.86 µM) | 0.5 | 
17 | CCCCOC(=O)N1CCN(c2ccc(CNC(=O)c3ccc([N+](=O)[O-])o3)cc2)CC1 |  |  | 0.05 (≈ 0.116 µM) |  | 
18 | O=C(NCc1ccc(N2CCCN(Cc3ccccc3)CC2)cc1)c1ccc([N+](=O)[O-])o1 |  |  | 0.8 (≈ 1.84 µM) |  | 
19 | O=C(c1ccc([N+](=O)[O-])o1)N1CCc2cc(N3CCN(Cc4ccccc4)CC3)ccc2C1 |  |  | 0.0062 (≈ 0.0139 µM) |  | 
20 | CC(C)(C)OC(=O)N1CCN(c2ccc(CNC(=O)c3ccc([N+](=O)[O-])o3)cc2)CC1 |  |  | 0.025 (≈ 0.0581 µM) |  | 
21 | Cl.O=C(NCc1ccc(N2CCN(Cc3ccccc3)CC2)cc1)c1ccc([N+](=O)[O-])o1 |  |  |  |  | 2240
22 | CC(C)NC(=O)N1CCN(c2ccc(CNC(=O)c3ccc([N+](=O)[O-])o3)cc2)CC1 |  |  | 0.8 (≈ 1.93 µM) |  | 
23 | CC(C)(C)OC(=O)N1CCN(c2ccc(CNC(=O)c3ccc([N+](=O)[O-])o3)cn2)CC1 | 1230 | 2.3 | 0.05 (≈ 0.116 µM) | 0.5 | 
